Measured values as given in patent publication US7045523B2 (Novartis AG, priority 2001, dated 2006).

What was measured:
[1] = test system: K562 cells; experiment: Apoptosis assay, flow cytometry with APO2.7 mAb, in K562 cells with or without 10 days of telomestatin; format: cell-based; settings: for induction of apoptosis / chemosensitivity in telomestatin-treated K562 cells compared with control cells: after exposure to the agent, the negative results are data not shown; for APO2.7 (%): 48 hours, K562 control cells or cells cultured with telomestatin 2 μM for 10 days
Procedure: Apoptosis assay. The incidence of apoptosis was determined by flow cytometric analysis with the FITC-conjugated APO2.7 monoclonal antibody (clone 2.7), which was raised against the 38 kDa mitochondrial membrane protein (7A6 antigen) and is expressed by cells undergoing apoptosis (Nakajima et al., 2001).
To assess the effects of telomerase inhibition in modulating responses to these reagents, experiments focused on early passaged telomestatin-treated K562 cells (PD10). In this series of experiments, K562 cells are cultured with telomestatin for 10 days, subsequently the telomestatin-treated K562 cells are incubated with the agents for 48 hours, and the incidence of apoptosis is determined by flow cytometric analysis with APO2.7 mAb (Table A). Apo2.7 is the apoptosis index. Higher score means that apoptosis is induced more powerfully.

[2] = test system: OM9;22 or OM9;22R cells; experiment: Cell proliferation (growth kinetics) of OM9;22 / OM9;22R cells; format: cell-based, human; settings: OM9;22 or Imatinib-resistant OM9;22R cells
Procedure: Cells and cell culture: The Ph-positive acute lymphoblastic cell line OM9;22 has been described previously (Ohyashiki et al., 1993). K562 cells were obtained from the American Type Culture Collection (Rockville, Md.). These cell lines were cultured in McCoy's 5A modified medium (Life Technology, Inc.) supplemented with 10% fetal calf serum (Hyclone Laboratories, Logan, Utah).
Effects of telomestatin on cell proliferation. We characterize the growth properties of telomestatin-treated cells. […] In a further study, we can characterize the ability of telomestatin to inhibit BCR-ABL transformation.

[3] = test system: human normal hematopoietic progenitor cells; experiment: Clonogenic assay on normal hematopoietic progenitor cells; format: cell-based; settings: at concentrations 10 times higher than those that completely inhibit colonies from OM9;22R cells

SMILES | induction of apoptosis / chemosensitivity in telomestatin-treated K562 cells compared with control cells [1] | APO2.7 (%) ([1]; 10 nM agent) | APO2.7 (%) ([1]; 50 nM agent) | APO2.7 (%) ([1]; 100 nM agent) | APO2.7 (%) ([1]; 500 nM agent) | APO2.7 (%) ([1]; 1000 nM agent) | time until proliferation is slowed [2] | sensitivity of human normal hematopoietic progenitor cells [3]
Nc1ccn([C@@H]2O[C@H](CO)[C@@H](O)[C@@H]2O)c(=O)n1 [cytosine arabimoside, cytosine arabinoside] | significant chemosensitivity is not observed |  |  |  |  |  |  | 
COc1cc([C@@H]2c3cc4c(cc3[C@@H](O[C@@H]3O[C@@H]5CO[C@@H](C)O[C@H]5[C@H](O)[C@H]3O)[C@H]3COC(=O)[C@H]23)OCO4)cc(OC)c1O [etoposide (VP-16), etoposide] | significant chemosensitivity is not observed |  |  |  |  |  |  | 
CN(Cc1cnc2nc(N)nc(N)c2n1)c1ccc(C(=O)N[C@@H](CCC(=O)O)C(=O)O)cc1 [methotrexate (MTX), methotrexate] | significant chemosensitivity is not observed |  |  |  |  |  |  | 
O=C1c2c(O)ccc(O)c2C(=O)c2c(NCCNCCO)ccc(NCCNCCO)c21 [MIT (control), mitoxantrone] | enhanced induction of apoptosis | 10% | 12% | 17% | 29% | 38% |  | 
CC[C@]1(O)C[C@H]2CN(CCc3c([nH]c4ccccc34)[C@@](C(=O)OC)(c3cc4c(cc3OC)N(C=O)[C@H]3[C@@](O)(C(=O)OC)[C@H](OC(C)=O)[C@]5(CC)C=CCN6CC[C@]43[C@@H]65)C2)C1 [VCR (control), vincristine] | enhanced induction of apoptosis | 12% | 18% | 24% | 29% | 34% |  | 
Cc1oc2nc1-c1nc(co1)-c1nc(co1)-c1nc(co1)-c1nc(co1)-c1nc(co1)C1=NC(CS1)c1nc-2c(C)o1 (centres unmarked) [telomestatin] |  |  |  |  |  |  | ≤ 2 weeks | significantly less sensitive
COc1cccc2c1C(=O)c1c(O)c3c(c(O)c1C2=O)C[C@@](O)(C(C)=O)C[C@@H]3O[C@H]1C[C@H](N)[C@H](O)[C@H](C)O1 [DNR (control), Daunorubicin] | enhanced induction of apoptosis | 11% | 23% | 36% | 53% |  |  | 
Sc1ncnc2nc[nH]c12 [6-mercaptopurine (6-MP), 6-mercaptopurine] | significant chemosensitivity is not observed |  |  |  |  |  |  | 
